From patent US11236055B2 (Venenum Biodesign, LLC, priority 2016, dated 2022)
Counter-ions that a name gives are not always drawn.

Assays:
mouse TGR5 receptor = molecular target: T1, mouse TGR5 receptor (Mus musculus, UniProt Q80SS6); assay: Mouse TGR5 cAMP production assay (HTRF, Cisbio cAMP HiRange); format: cell-based; conditions: HEK293-EBNA cells overexpressing mouse TGR5, HTRF cAMP HiRange; coded A-D
T1 construct: expressed in transfected cells; host or cells: HEK293-EBNA (293 c18, ATCC CRL10852), Hygromycin B selection
T1 sequence (Q80SS6 1-329): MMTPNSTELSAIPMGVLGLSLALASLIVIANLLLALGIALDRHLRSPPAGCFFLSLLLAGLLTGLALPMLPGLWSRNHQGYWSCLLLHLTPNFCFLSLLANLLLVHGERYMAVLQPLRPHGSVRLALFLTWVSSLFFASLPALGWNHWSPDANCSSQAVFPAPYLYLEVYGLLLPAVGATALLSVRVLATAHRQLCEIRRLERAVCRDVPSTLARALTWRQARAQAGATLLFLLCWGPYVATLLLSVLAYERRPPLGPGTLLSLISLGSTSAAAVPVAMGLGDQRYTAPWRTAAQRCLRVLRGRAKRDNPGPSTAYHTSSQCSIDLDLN
In short: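 cAMP read by HTRF competition after 1 h room-temperature compound exposure of mouse TGR5-overexpressing HEK293-EBNA cells. Cells were suspended in serum-free DMEM containing 500 μM IBMX; compounds ran as 12-point half-log dilutions in duplicate; EC50 derived.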

human TGR5 receptor = molecular target: T2, human TGR5 receptor (Homo sapiens, UniProt Q8TDU6); assay: Human TGR5 cAMP production assay; format: cell-based; conditions: human TGR5, luminescent cAMP assay; coded A-D; read-out: Human TGR5 Lum. cAMP Activity (EC50)
T2 construct: host or cells: CHO-K1 (hTGR5-CHO cells)
T2 sequence (Q8TDU6 1-330): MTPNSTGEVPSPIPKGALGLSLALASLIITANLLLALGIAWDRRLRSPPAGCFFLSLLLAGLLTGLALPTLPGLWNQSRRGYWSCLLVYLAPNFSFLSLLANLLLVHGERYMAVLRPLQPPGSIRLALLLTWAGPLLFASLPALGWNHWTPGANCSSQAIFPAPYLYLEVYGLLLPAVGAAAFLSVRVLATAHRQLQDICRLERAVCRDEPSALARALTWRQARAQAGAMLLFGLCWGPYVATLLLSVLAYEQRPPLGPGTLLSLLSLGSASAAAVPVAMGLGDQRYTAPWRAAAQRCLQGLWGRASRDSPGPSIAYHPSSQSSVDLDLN
In short: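 CHO-K1 cells stably expressing human TGR5, with IBMX and cAMP antibody, were exposed to half-log serially diluted compound for 1 h at room temperature. cAMP measured by enzyme-fragment complementation luminescence (XS+ kit) after overnight incubation; EC50 values reported.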

Row | EC50 (mouse TGR5 receptor) [nM] | EC50 (human TGR5 receptor) [nM] | Structure (SMILES)
1 | < 100 | < 100 | CCc1cnccc1-c1cccc(C2CNCCN2S(=O)(=O)c2cccc(Cl)c2C)c1 (racemic) [Compound 43, (+/−) 1-((3-chloro-2-methylphenyl)sulfonyl)-2-(3-(3-ethylpyridin-4-yl)phenyl)piperazine hydrochloride]
2 | < 100 | 100 to 999 | CCc1cnccc1-c1cccc(C2CN(C(=O)CCC(=O)NCCCS(=O)(=O)O)CCN2S(=O)(=O)c2cccc(Cl)c2C)c1 (stereo not drawn) [Compound 53AC, 3-(4-(4-((3-chloro-2-methylphenyl)sulfonyl)-3-(3-(3-ethylpyridin-4-yl)phenyl)piperazin-1-yl)-4-oxobutanamido)propane-1-sulfonic acid]
3 | 100 to 999 | < 100 | Cc1cnccc1-c1cccc([C@H](C)N(CCCC(=O)NCCC(=O)O)S(=O)(=O)c2cccc(Cl)c2C)c1 [Compound 21AH, (S)-3-(4-(3-chloro-2-methyl-N-(1-(3-(3-methylpyridin-4-yl)phenyl)ethyl)phenylsulfonamido)butanamido)propanoic acid]
4 | < 100 | 100 to 999 | Cc1cnccc1-c1cccc(C2CN(C(=O)CCC(=O)O)CCN2S(=O)(=O)c2cccc(Cl)c2Cl)c1 (stereo not drawn) [Compound 46AK, 4-(4-((2,3-dichlorophenyl)sulfonyl)-3-(3-(3-methylpyridin-4-yl)phenyl)piperazin-1-yl)-4-oxobutanoic acid]
5 | 100 to 999 | < 100 | Cc1cnccc1-c1cccc(C(C)(C)N(CCCNS(=O)(=O)CCNC(=N)N)S(=O)(=O)c2cccc(Cl)c2C)c1 [Compound 27AC, 3-chloro-N-(3-((2-guanidinoethyl)sulfonamido)propyl)-2-methyl-N-(2-(3-(3-methylpyridin-4-yl)phenyl)propan-2-yl)benzenesulfonamide]
6 | < 100 | < 100 | Cc1cnccc1-c1cccc([C@H](C)N(CCCC(=O)NCCS(=O)(=O)NCC(=O)O)S(=O)(=O)c2ccc(F)cc2C(F)(F)F)c1 [Compound 36, (S)-2-(4-(4-fluoro-N-(1-(3-(3-methylpyridin-4-yl)phenyl)ethyl)-2-(trifluoromethyl)phenylsulfonamido)butanamido)ethanesulfonamido acetic acid]
7 | 100 to 999 | < 100 | Cc1cnccc1-c1cccc(C(C)(C)N(CCCNS(=O)(=O)CCNC(=O)NCCCS(=O)(=O)O)S(=O)(=O)c2cccc(Cl)c2C)c1 [Compound 28AE, 3-(3-(2-(N-(3-((3-chloro-2-methyl-N-(2-(3-(3-methylpyridin-4-yl)phenyl)-propan-2-yl)phenyl)sulfonamido)-propyl)sulfamoyl)ethyl)ureido)propane-1-sulfonic acid]
8 | 100 to 999 | < 100 | Cc1cnccc1-c1cccc(C(C)(C)N(CCCC(=O)NCCNC(=N)N)S(=O)(=O)c2cccc(Cl)c2C)c1 [Compound 27AB, 4-(3-chloro-2-methyl-N-(2-(3-(3-methylpyridin-4-yl)phenyl)propan-2-yl)phenylsulfonamido)-N-(2-guanidinoethyl)butanamide]
9 | 100 to 999 | < 100 | Cc1cnccc1-c1cccc(C2CCCCN2S(=O)(=O)c2ccccc2C(F)(F)F)c1 (stereo not drawn) [Compound 54, 3-methyl-4-(3-(1-((2-(trifluoromethyl)phenyl)sulfonyl)piperidin-2-yl)phenyl)pyridine]
10 | 100 to 999 | 100 to 999 | Cc1cnccc1-c1cccc(C2CNCCN2S(=O)(=O)c2cccc(Cl)c2C)c1 (stereo not drawn) [Compound 43AE, 1-((3-chloro-2-methylphenyl)sulfonyl)-2-(3-(3-methylpyridin-4-yl)phenyl)piperazine]
11 | < 100 | < 100 | Cc1cnccc1-c1cccc(C2CN(C(=O)CCCC(=O)O)CCN2S(=O)(=O)c2cccc(Cl)c2C)c1 (stereo not drawn) [Compound 46AE, 5-(4-((3-chloro-2-methylphenyl)sulfonyl)-3-(3-(3-methylpyridin-4-yl)phenyl)piperazin-1-yl)-5-oxopentanoic acid]

The next lines start with the compound.

Row | Structure (SMILES) | EC50 (mouse TGR5 receptor) [nM] | EC50 (human TGR5 receptor) [nM]
12 | Cc1nccc(-c2cccc([C@H](C)N(CCCC(=O)O)S(=O)(=O)c3cccc(Cl)c3C)c2)c1C [Compound 14AG, (S)-4-(3-chloro-N-(1-(3-(2,3-dimethylpyridin-4-yl)phenyl)ethyl)-2-methylphenylsulfonamido)butanoic acid] | 100 to 999 | 100 to 999
13 | CCc1cnccc1-c1cccc([C@H](C)NS(=O)(=O)c2ccccc2C(F)(F)F)c1 [Compound 5AQ, (S)-N-(1-(3-(3-ethylpyridin-4-yl)phenyl)ethyl)-2-(trifluoromethyl)benzenesulfonamide] | < 100 | < 100
14 | COc1cnccc1-c1cccc(C(C)(C)NS(=O)(=O)c2ccc(Cl)cc2Cl)c1 [Compound 2BG] | < 100 | < 100
15 | COc1cnccc1-c1cccc(C(C)(C)NS(=O)(=O)c2ccc(Cl)cc2C(F)(F)F)c1 [Compound 2BF] | 100 to 999 | < 100
16 | Cc1cnccc1-c1cccc([C@H](C)N(CCCC(=O)O)S(=O)(=O)c2cccc(Cl)c2C)c1 [Compound 16] | < 100 | 100 to 999
17 | CC(C)(NS(=O)(=O)c1cccc(C(F)(F)F)c1)c1cccc(-c2ccncc2N)c1 [Compound 1AM] | 100 to 999 | < 100
18 | CC[C@H](NS(=O)(=O)c1cccc(C(F)(F)F)c1)c1cccc(-c2ccncc2C)c1 [Compound 5AY, (S)-N-(1-(3-(3-methylpyridin-4-yl)phenyl)propyl)-3-(trifluoromethyl)benzenesulfonamide] | 100 to 999 | < 100
19 | COc1cnccc1-c1ccnc(CNS(=O)(=O)c2ccccc2C(F)(F)F)c1 [Compound 1BT] | 1000 to 30000 | 1000 to 30000
20 | Cc1cnccc1-c1cccc([C@H](C)N(CCC(=O)NCCS(=O)(=O)O)S(=O)(=O)c2cccc(Cl)c2C)c1 [Compound 20BV, (S)-2-(3-(3-chloro-2-methyl-N-(1-(3-(3-methylpyridin-4-yl)phenyl)ethyl)phenylsulfonamido)propanamido)ethanesulfonic acid] | < 100 | 100 to 999
21 | Cc1nccc(-c2cccc([C@H](C)NS(=O)(=O)c3cccc(Cl)c3C)c2)c1C [Compound 7AB, (S)-3-chloro-N-(1-(3-(2,3-dimethylpyridin-4-yl)phenyl)ethyl)-2-methylbenzenesulfonamide] | 1000 to 30000 | 100 to 999
22 | Cc1cnccc1-c1cccc([C@H](C)N(CCCCC(=O)NCCOCCN)S(=O)(=O)c2cccc(Cl)c2C)c1 [Compound 20AT, (S)-N-(2-(2-aminoethoxy)ethyl)-5-(3-chloro-2-methyl-N-(1-(3-(3-methylpyridin-4-yl)phenyl)ethyl)phenylsulfonamido)pentanamide] | 100 to 999 | < 100
23 | Cc1c(Cl)cccc1S(=O)(=O)N(CCCC(=O)O)C(C)(C)c1cccc(-c2ccncc2CO)c1 [Compound 16AC, 4-(3-chloro-N-(2-(3-(3-(hydroxymethyl)pyridin-4-yl)-phenyl)propan-2-yl)-2-methylphenylsulfonamido)butanoic acid] | 100 to 999 | < 100
24 | Cc1cnccc1-c1cccc(C(C)N(CCCC(=O)NCCSO)S(=O)(=O)c2ccccc2C(F)(F)F)c1 (stereo not drawn) [Compound 20BC, N-(2-(hydroxythio)ethyl)-4-(N-(1-(3-(3-methylpyridin-4-yl)phenyl)ethyl)-2-(trifluoromethyl)phenylsulfonamido)butanamide] | 100 to 999 | < 100
